“Also recorded” adds a separate entry of the source.
Columns and labels:
WT MEFs [1] = experiment: FACS analysis of DNA content; format: cell-based, mouse
Apc^Min/+ MEFs [2] = experiment: Trypan blue exclusion viable/dead cell count; format: cell-based, mouse
Description: (§1) Murine embryonic fibroblasts (MEFs) isolated from Apc^Min/+ mice and wild type mice were treated with either vehicle solution of DMSO or varying concentrations of 9-bromonoscapine for 48 hours. Viable and dead cells were counted in triplicate using exclusion of the vital dye, trypan blue. […] This provided a therapeutic window (5-50 μM) for selective killing of Apc^Min/+ MEFs while causing minimal damage to the WT MEFs (FIG. 1A).

WT MEFs [3] = experiment: Trypan blue exclusion viable/dead cell count; format: cell-based, mouse; settings: 48 hours
Description: as §1

Apc^Min/+ MEFs [4] = experiment: FACS analysis of DNA content; format: cell-based, mouse
WT MEFs [5] = experiment: Confocal microscopy of MT arrays and chromosomes; format: cell-based, mouse; settings: reversed 24 hours after withdrawal
Apc^Min/+ MEFs [6] = experiment: Confocal microscopy of MT arrays and chromosomes; format: cell-based, mouse; settings: 48 hours of treatment, no recovery after drug removal
Apc^Min/+ MEFs [7] = experiment: Annexin V-Alexa Fluor488 / propidium iodide apoptosis FACS; format: cell-based, mouse; settings: 50 μM, 48 hour treatment
Description: (§2) Apoptotic cells that externalize the normal internal membrane lipid, phosphatidylserine, were analyzed by binding a fluorescently conjugated PS-binding protein, Annein V-Alexa Fluor488. These cells can be distinguished from the late apoptotic cells that also allow the DNA dye, Propidium iodide (PI) to penetrate the cell membranes allowing intracellular DNA to bind it. As shown in FIG. 1D i-ii, 73% of Apc^Min/+ MEFs were in early and late stages of apoptosis after a 48 hour treatment with 9-bromonoscapine (50 μM) as compared to a modest 21.6% WT MEFs under identical treatment regimen (FIG. 1D i-ii). 9-Bromonoscapine causes a selective cell death (apoptosis) in MEFs isolated from Apc^Min/+ mice when compared to the WT MEFs providing a therapeutic window from 5-50 μM range.

WT MEFs [8] = experiment: as above; format: cell-based, mouse; settings: 50 μM, 48 hour treatment
Description: as §2

[9] = test system: β-catenin activity in DLD1 cells; experiment: Tcf4/β-catenin responsive luciferase reporter assay; format: cell-based; settings: p<0.01
Text: (§3) HCT116 cells harbor an in-frame deletion of one phosphorylation site (Ser^45) in β-catenin that renders is partially active but has wild type APC. […] Because β-catenin is a negative regulator of CDKs inhibitor p21, p21 levels will rise upon restored downregulation of β-catenin and the cell cycle progression will be inhibited allowing cellular apoptosis (FIG. 2A). […] Hohla et al., Cell Cycle, 2009, 8(19):3149-3156.
(§4) This decrease in β-catenin levels does translate in reduction of its activity. A reporter gene luciferase under the control of three cloned copies of a conserved Tcf4/β-catenin responsive element was used and compared with an internal control, i.e., another reporter Renilla activity driven by a (β-catenin independent) promoter (CMV) in all three cell types tested (HCT116, DLD, Apc^Min/+ MEFs).

[10] = test system: β-catenin activity in HCT116 cells; experiment: as above; format: cell-based; settings: 8 hours after treatment
Text: as §3, §4

[11] = test system: β-catenin activity in Apc^Min/+ MEFs; experiment: as above; format: cell-based, mouse
Text: as §3, §4

[12] = test system: β-catenin levels in Apc^Min/+ MEFs; experiment: Quantitative western blot of β-catenin levels; format: cell-based, mouse
[13] = test system: cyclin D1, c-Myc, p21, cleaved caspase-3; experiment: Quantitative western blot of β-catenin target proteins and cleaved caspase-3; format: cell-based, mouse
Text: Positively responsive target genes cyclin-D l and c-Myc, and the negatively responsive gene, p21, respond with the restoration of partial loss of function by depleted APC activity after 9-bromonoscapine treatment. […] Furthermore, caspase-3 was activated as measured by the rising levels of cleaved active caspase-3.

Apc^Min/+ mice = experiment: Intestinal polyp/adenoma study in Apc^Min/+ mice; format: in vivo, mouse; settings: for adenoma load, distal intestine: control 12.5±2.9; for adenoma load, distal intestine / adenoma load, proximal intestine: p<0.01; for adenoma load, proximal intestine: control 32.2±2.3
Description: Mice were treated either with the vehicle solution alone (control) or 150 mg/kg body weight of 9-bromonoscapine. The mice were analyzed for the number of polyps throughout the gastrointestinal tract of animals. […] Representative bright filed micrographs of hematoxylin and eosine stained 5 μm cross sections from the intestine of vehicle treated control group (FIG. 3A ii, left panel) and 9-bromonoscapine treated group (FIG. 3A ii, right panel) show hyperplastic tissue lesions. In 9-bromonoscapine treated animals, the lesions were not clustered and, when found, seem much more restricted to the individual microvilli and were subdued in appearance (FIG. 3A ii, right panel).
To distinguish between neopolyposis post-treatment versus the growth of apparently existing polyps, two treatment regimens were followed. Treated 1: 9-bromonoscapine oral treatment (150 mg/kg body weight) began after 8 weeks of age and continued daily for 12 weeks prior to the experimental end point (in 20 weeks): Treated 2: 9-bromonoscapine oral administration began 21 days after birth at the same dose level for time matched period until the experimental end point. At this time, animals were euthanized and the entire GI tract was dissected out and flushed with PBS. The intestine was then removed from the colon and cut into three equal segments: proximal, medial, and distal. The colon and all three segments of the intestine were cut open longitudinally, stained with methylene blue prior to examination under a dissecting microscope fitted with a micrometer to aid the measurements. The vertex and co-vertex of each elliptical lesion was measured. The area was then calculated by multiplying the vertex, co-vertex and π (3.14). […] There was no visible difference between the groups of treated 1 and treated 2. The colonic adenomas are known to be rare in Apc^Min/+ mouse models.

[14] = Toxicology: histopathology, organ function, hematology; format: in vivo, mouse
Description: Hematoxylin and eosin stained 5 μm sections of paraffin-embedded brain, lung, liver, kidney, thymus, spleen, heart, and sciatic nerve tissues were analyzed. […] Organ associated toxicity was assessed by measuring organ functions in vehicle-treated and 9-bromonoscapine treated groups. Liver function tests (total bilirubin, alanine transaminase, aspartate aminotransferase, and alkaline phosphate levels) and renal functions tests (blood urea nitrogen and creatinine levels) were similar between drug treated and vehicle-treated groups.

tubulin = settings: without changing total microtubule polymer mass; cited from earlier work
[15] = Treated 1: oral 150 mg/kg daily from 8 weeks of age for 12 weeks
[16] = Treated 2: oral 150 mg/kg from 21 days after birth to end point
[17] = drug treated vs vehicle-treated

SMILES: COc1ccc2c(c1OC)C(=O)OC2C1c2c(cc3c(c2OC)OCO3)CCN1C (stereo not drawn) [noscapine, 3-(4-methoxy-6-methyl-5,6,7,8-tetrahydro-[1,3]dioxolo[4,5-g]isoquinolin-5-yl)-6,7-dimethoxyisobenzofuran-1(3H)-one]
- cell cycle distribution (DNA content) (WT MEFs [1]): reversible G2/M arrest

SMILES: COc1ccc2c(c1OC)C(=O)OC2C1c2c(c(Br)c3c(c2OC)OCO3)CCN1C (stereo not drawn) [9-bromonoscapine, 3-(9-bromoe-4-methoxy-6-methyl-5,6,7,8-tetrahydro-[1,3]dioxolo[4,5-g]isoquinolin-5-yl)-6,7-dimethoxyisobenzofuran-1(3H)-one]
- IC50 (Apc^Min/+ MEFs [2]; Apc^Min/+ MEFs, 48 hours, trypan blue exclusion): 28.6 µM
- therapeutic window for selective killing of Apc^Min/+ MEFs (Apc^Min/+ MEFs [2]; minimal damage to WT MEFs): 5 to 50 µM
- sensitivity of Apc^Min/+ MEFs relative to WT MEFs (Apc^Min/+ MEFs [2]; ratio of IC50 values, 48 hours): 4.7 times
- IC50 (WT MEFs [3]): 135 µM
- cell cycle distribution (DNA content) (WT MEFs [1]): a decline in G1 and a rise in G2/M
- cell cycle distribution (DNA content) (Apc^Min/+ MEFs [4]): a decline in G1 and a rise in G2/M
- sub-G1 DNA content (Apc^Min/+ MEFs [4]; 48 hours of treatment): distinct shift of cells to a sub-G1 DNA content of <2N
- mitotic phenotype (WT MEFs [5]): typical mitotic arrest with bipolar prometaphase spindles
- mitotic phenotype (Apc^Min/+ MEFs [6]): highly disorganized, often multipolar mitoses
- cells in early and late stages of apoptosis (Apc^Min/+ MEFs [7]): 73%
- cells in early and late stages of apoptosis (WT MEFs [8]): 21.6%
- β-catenin activity lowered to [9]: 48%
- decline in β-catenin activity [10]: 31%
- β-catenin activity lowered to ([11]; Apc^Min/+ MEFs, p<0.01): 59%
- β-catenin activity (in words) ([11]; Apc^Min/+ cells): fell to half the original levels
- β-catenin levels [12]: two-fold decrease; also recorded: fell to half the original levels
- c-Myc protein level [13]: down
- caspase-3 activation (cleaved active caspase-3) [13]: activated
- cyclin D1 protein level [13]: down
- p21 level [13]: elevated
- number and overall areas of intestinal lesions (Apc^Min/+ mice; 150 mg/kg body weight, methylene blue stained intestine): pronounced decrease
- apoptotic foci in lesioned tissue (cleaved caspase 3 immunohistochemistry) (Apc^Min/+ mice; 150 mg/kg, basal areas of the villus): additional copious apoptotic foci
- adenoma load, distal intestine (Apc^Min/+ mice; [15]): 5.2±0.6 mm2
- adenoma load, proximal intestine (Apc^Min/+ mice; [15]): 13.7±1.4 mm^2
- adenoma load, distal intestine (Apc^Min/+ mice; [16]): 5.2±0.8 mm2
- adenoma load, proximal intestine (Apc^Min/+ mice; [16]): 11.8±0.8 mm^2
- total number of adenomas (Apc^Min/+ mice; both treatment groups (Treated 1, Treated 2) vs sham-treated controls, oral 150 mg/kg): significant decline
- number of big lesions (>3 mm^2 and >1 mm^2) (Apc^Min/+ mice; size distribution bins, oral 150 mg/kg): significant decreases
- adenoma within the colon (Apc^Min/+ mice; treated vs control): did not reveal any apparent differences
- systemic homeostasis (albumin, total protein, glucose) and electrolyte balances (Na+, K+, TCO2) ([14]; among the three groups): not distinguishable profiles
- tissue architecture (H&E sections of brain, lung, liver, kidney, thymus, spleen, heart, sciatic nerve) ([14]; blinded observations, treated vs vehicle): did not reveal any significant differences
- liver function tests (total bilirubin, alanine transaminase, aspartate aminotransferase, alkaline phosphate levels) [14, 17]: similar
- renal functions tests (blood urea nitrogen and creatinine levels) [14, 17]: similar
- WBC, RBC counts, hemoglobin concentration, hematocrit, platelet counts ([14]; treated vs vehicle): no significant differences
- tubulin binding affinity relative to noscapine (tubulin): higher affinity than noscapine

From patent US20130045203A1, “Uses of Noscapine and Derivatives in Subjects Diagnosed with FAP” (EMORY UNIVERSITY, priority 2010, published 2013)
